Reference: PMC1253704, “Nitromusk and Polycyclic Musk Compounds as Long-Term Inhibitors of Cellular Xenobiotic Defense Systems Mediated by Multidrug Transporters” (Environmental Health Perspectives, 2004)
Where two headings read alike, the source gives them in different places. Marks after values point to notes of the source that are not given here.

What was measured:
[1] = system: efflux transporters in mussel gills (MXR transporters); test: Long-term inhibition: transporter activity assay after 2 hr exposure and 0, 24, 48 hr washing in FSW; type: cell-based, Mytilus californianus; settings: 1 μM test compound 2 hr
Method: (§1) Gill tissue disks were incubated in test solutions with gentle rocking for 90 min at 15°C in the dark (n = 2–5 tissue disks per dish). After exposure, the tissue disks were briefly washed twice in FSW to remove external rhodamine B, frozen on dry ice or in liquid nitrogen, and stored at −20°C in the dark. […] The sonicates were then centrifuged at 13,000g for 5 min, and the supernatant was transferred to black 96-well microplates (Packard Instrument Co., Meriden, CT). The amount of dye in the supernatant was determined with a fluorescence microplate reader (Packard FluoroCount; […]). Rhodamine B extracts were kept dark and on ice at all times. At each reading, background fluorescence was determined with pure n-butanol and subtracted from each value.
(§2) To examine the duration of inhibitory effects after exposure to test compounds, six to nine gill tissue disks were incubated with 1 μM of test compounds for 2 hr. Transporter activity was then assayed in one-third of the disks immediately after exposure and in the others after 24 hr and 48 hr of washing in fresh FSW (50 mL). FSW was changed after 24 hr. During exposure and washing, dishes were gently rocked at 15°C in the dark. The transporter activity assay was performed with 1 μM rhodamine B as described above.
(§3) Transport activities in treated gill disks were normalized relative to nontreated controls that were run for each individual. The ratios, which indicate relative increases in fluorescence, were used as a measure of inhibition by each compound at the specified concentrations. […] IC10 and IC50 values were determined by probit analysis using a macro program for Microsoft Excel written by J. Greve (Fraunhofer-Institut für Umweltchemie und Ökotoxikologie, Schmallenberg, Germany).

[2] = cited from earlier work
[3] = target: T1, efflux transporters in mussel gills (MXR transporters) (Mytilus californianus, UniProt B2WTH9); test: Competitive substrate/transporter inhibition assay: rhodamine B accumulation in mussel gill tissue disks; type: cell-based; settings: concentration causing 10% of maximal inhibition; mean ± SD; probit regression; 1 μM rhodamine B, 90 min, 15°C
T1 sequence (B2WTH9 1-1311): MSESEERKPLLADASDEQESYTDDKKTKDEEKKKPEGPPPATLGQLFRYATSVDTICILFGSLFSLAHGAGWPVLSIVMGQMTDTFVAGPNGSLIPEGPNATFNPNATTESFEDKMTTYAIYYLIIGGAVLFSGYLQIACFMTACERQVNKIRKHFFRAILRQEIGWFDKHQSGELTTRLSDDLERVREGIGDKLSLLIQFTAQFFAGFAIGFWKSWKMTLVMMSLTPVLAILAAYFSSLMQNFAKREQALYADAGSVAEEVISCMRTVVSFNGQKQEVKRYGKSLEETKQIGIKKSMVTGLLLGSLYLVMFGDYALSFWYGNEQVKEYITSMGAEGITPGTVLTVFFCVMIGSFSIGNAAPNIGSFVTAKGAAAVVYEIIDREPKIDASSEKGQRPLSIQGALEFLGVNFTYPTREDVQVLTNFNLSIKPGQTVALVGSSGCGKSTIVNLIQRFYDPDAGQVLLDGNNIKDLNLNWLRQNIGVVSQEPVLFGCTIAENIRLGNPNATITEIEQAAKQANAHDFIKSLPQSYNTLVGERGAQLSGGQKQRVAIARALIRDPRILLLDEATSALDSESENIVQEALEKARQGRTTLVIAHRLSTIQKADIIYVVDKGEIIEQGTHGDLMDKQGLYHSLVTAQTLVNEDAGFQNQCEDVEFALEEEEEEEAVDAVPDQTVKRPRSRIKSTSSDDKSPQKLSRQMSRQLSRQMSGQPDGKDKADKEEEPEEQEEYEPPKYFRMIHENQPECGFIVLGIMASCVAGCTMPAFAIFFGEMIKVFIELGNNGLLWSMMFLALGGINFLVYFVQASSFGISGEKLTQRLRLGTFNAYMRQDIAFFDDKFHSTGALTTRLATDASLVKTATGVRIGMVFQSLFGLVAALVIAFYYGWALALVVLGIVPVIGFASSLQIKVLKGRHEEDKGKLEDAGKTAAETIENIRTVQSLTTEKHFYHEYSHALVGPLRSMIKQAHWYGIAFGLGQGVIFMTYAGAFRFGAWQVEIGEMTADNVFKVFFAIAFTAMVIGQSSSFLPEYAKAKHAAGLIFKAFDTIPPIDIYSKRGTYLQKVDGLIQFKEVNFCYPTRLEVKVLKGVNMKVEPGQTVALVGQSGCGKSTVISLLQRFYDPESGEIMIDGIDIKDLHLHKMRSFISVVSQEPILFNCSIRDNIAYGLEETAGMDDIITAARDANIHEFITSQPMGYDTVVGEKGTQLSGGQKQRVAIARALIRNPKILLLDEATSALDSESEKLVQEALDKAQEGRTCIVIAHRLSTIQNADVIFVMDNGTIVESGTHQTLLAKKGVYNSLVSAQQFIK
Method: The fluorescent dye rhodamine B was used as an indicator of efflux transporter activity. […] Test solutions were prepared in FSW with 1 μM rhodamine B. Stocks of the test compounds dissolved in ethanol were added to FSW to the desired concentrations, and all solutions were adjusted to 1% ethanol along with an ethanol control. […] Incubations were performed in glass petri dishes (diameter, 5 cm) in a volume of 10 mL.
as §1, §3

[4] = target: T1, efflux transporters in mussel gills (MXR transporters); test: Long-term inhibition: transporter activity assay after 2 hr exposure and 0, 24, 48 hr washing in FSW; type: cell-based; settings: 1 μM test compound 2 hr
Method: as §1, §2, §3

[5] = set-up: method as in Käfferlein et al. 1998; settings: ref Käfferlein et al. 1998, cited from earlier work
[6] = after 24 hr of washing, paired t-test p < 0.05

Row | Structure (SMILES) | continuing inhibition of transporter activity, treatment versus control (in words) [1, 6] | continuing inhibition of transporter activity, treatment versus control (in words) ([1]; after 48 hr of washing) | Log Kow ([2]; ref Balk et al. (2001)) | IC10 [3] [nM] | continuing inhibition of transporter activity, treatment versus control (in words) [4, 6] | continuing inhibition of transporter activity, treatment versus control (in words) ([4]; after 48 hr of washing) | Concentrations found in blood plasma ([5]; human blood plasma) | Concentrations found in body fat and breast milk ([5]; human body fat and breast milk) [µmol/kg] | Log Kow ([2]; ref Liu (2004))
1 | CC(=O)c1cc2c(cc1C)C(C)(C)C(C)C2C(C)C (centres unmarked) [ATII, 5-Acetyl-1,1,2,6-tetramethyl-3-isopropylindane] | significant | complete recovery | 6.3^a | 320 ± 40 | – | – | – | – | –
2 | CC(=O)c1cc(C(C)(C)C)cc2c1CCC2(C)C [ADBI, 4-Acetyl-1,1-dimethyl-6-tert-butylindane] | clear trends of increased rhodamine levels | trend of reduced activity | 5.9^a | 390 ± 340 | – | – | – | – | –
3 | Cc1c([N+](=O)[O-])c(C)c([N+](=O)[O-])c(C(C)(C)C)c1[N+](=O)[O-] [MX, 1-tert-Butyl-3,5-dimethyl-2,4,6-trinitrobenzene] | – | – | 4.9^a | 140 ± 120 | significant | trend of reduced activity | nanomolar range | 0.2 to 0.3 | –
4 | CCN(CC)c1ccc2c(-c3ccccc3C(=O)O)c3ccc(=[N+](CC)CC)cc-3oc2c1 [Rhodamine B, reference compound] | – | – | – | – | – | – | – | – | 1.5^c
5 | CC1COCc2cc3c(cc21)C(C)(C)C(C)C3(C)C (centres unmarked) [HHCB, 1,3,4,6,7,8-Hexahydro-4,6,6,7,8,8-hexamethyl-cyclopenta-γ-[2]-benzopyran] | significant | trend of reduced activity | 5.9^a | 370 ± 160 | – | – | – | – | –
6 | CC(=O)c1c(C)c([N+](=O)[O-])c(C(C)(C)C)c([N+](=O)[O-])c1C [MK, 1-tert-Butyl-3,5-dimethyl-2,6-dinitro-4-acetylbenzene] | clear trends of increased rhodamine levels | trend of reduced activity | 4.3^a | 90 ± 120 | – | – | – | – | –
